Assay results: ChEMBL document CHEMBL4800728, “Data for DCP probe JNJ-54119936” (2021); call rule not given here

Key:
[1] = molecular target: 5-hydroxytryptamine receptor 1D (Homo sapiens) (UniProt P28221); conditions: Compound concentration 10.0 uM
[2] = molecular target: Muscarinic acetylcholine receptor M4 (Homo sapiens) (UniProt P08173); conditions: Compound concentration 10.0 uM
[3] = molecular target: Mitogen-activated protein kinase 13 (Homo sapiens) (UniProt O15264); assay: p38delta Invitrogen kinase panel; conditions: Compound concentration 10.0 uM
[4] = molecular target: Mu-type opioid receptor (Homo sapiens) (UniProt P35372); conditions: Compound concentration 10.0 uM
[5] = molecular target: Histamine H1 receptor (Homo sapiens) (UniProt P35367); conditions: Compound concentration 10.0 uM
Chain of Histamine H1 receptor (Homo sapiens) (P35367 whole entry): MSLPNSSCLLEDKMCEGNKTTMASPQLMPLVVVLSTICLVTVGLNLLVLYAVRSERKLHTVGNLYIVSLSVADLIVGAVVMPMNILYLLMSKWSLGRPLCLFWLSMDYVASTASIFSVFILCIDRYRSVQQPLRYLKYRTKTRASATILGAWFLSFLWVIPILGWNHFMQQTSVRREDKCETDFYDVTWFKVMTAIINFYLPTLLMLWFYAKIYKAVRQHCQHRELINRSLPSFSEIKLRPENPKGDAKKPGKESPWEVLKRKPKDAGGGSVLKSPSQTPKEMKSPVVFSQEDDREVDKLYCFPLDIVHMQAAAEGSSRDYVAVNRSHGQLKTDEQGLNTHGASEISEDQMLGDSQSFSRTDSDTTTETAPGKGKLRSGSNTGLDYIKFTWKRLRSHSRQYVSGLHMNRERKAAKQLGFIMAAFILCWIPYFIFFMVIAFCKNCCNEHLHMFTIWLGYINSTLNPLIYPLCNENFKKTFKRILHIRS

[6] = molecular target: NT-3 growth factor receptor (Homo sapiens) (UniProt Q16288); assay: TrkC Invitrogen kinase panel; conditions: Compound concentration 10.0 uM
[7] = molecular target: 5-hydroxytryptamine receptor 6 (Homo sapiens) (UniProt P50406); assay: 5-HT6 (h) CEREP screen
Chain of 5-hydroxytryptamine receptor 6 (Homo sapiens) (P50406 whole entry): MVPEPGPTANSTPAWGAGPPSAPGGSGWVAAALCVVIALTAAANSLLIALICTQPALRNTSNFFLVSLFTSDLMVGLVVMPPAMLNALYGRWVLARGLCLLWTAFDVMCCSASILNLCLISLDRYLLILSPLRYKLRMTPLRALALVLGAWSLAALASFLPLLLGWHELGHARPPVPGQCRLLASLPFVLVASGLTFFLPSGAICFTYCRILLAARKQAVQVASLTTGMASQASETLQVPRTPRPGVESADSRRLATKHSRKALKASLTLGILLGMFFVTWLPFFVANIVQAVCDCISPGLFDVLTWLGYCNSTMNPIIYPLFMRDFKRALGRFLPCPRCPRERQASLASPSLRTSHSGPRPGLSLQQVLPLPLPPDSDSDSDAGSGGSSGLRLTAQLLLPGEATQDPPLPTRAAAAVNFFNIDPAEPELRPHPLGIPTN

[8] = molecular target: Casein kinase II subunit alpha' (Homo sapiens) (UniProt P19784); assay: CK2alpha2 Invitrogen kinase panel; conditions: Compound concentration 10.0 uM
[9] = molecular target: Sodium-dependent serotonin transporter (Homo sapiens) (UniProt P31645); conditions: Compound concentration 10.0 uM
[10] = molecular target: D(1A) dopamine receptor (Homo sapiens) (UniProt P21728); assay: D1 (h) CEREP screen; conditions: Compound concentration 10.0 uM
Chain of D(1A) dopamine receptor (Homo sapiens) (P21728 whole entry): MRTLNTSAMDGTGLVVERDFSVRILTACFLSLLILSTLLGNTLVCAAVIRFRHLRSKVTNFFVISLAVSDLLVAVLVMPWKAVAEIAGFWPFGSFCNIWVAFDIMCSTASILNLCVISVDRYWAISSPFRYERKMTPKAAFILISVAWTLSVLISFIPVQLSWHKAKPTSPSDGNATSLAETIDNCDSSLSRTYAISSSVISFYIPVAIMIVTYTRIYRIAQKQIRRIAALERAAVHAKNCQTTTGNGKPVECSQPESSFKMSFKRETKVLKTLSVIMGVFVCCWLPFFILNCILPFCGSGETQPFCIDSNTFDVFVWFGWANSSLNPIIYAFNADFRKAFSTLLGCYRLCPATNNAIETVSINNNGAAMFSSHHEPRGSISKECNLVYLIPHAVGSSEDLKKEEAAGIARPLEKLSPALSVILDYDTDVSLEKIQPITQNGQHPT

[11] = molecular target: T1, Estrogen receptor (Homo sapiens) (UniProt P03372); assay: ERalpha In-house nuclear receptor screen; conditions: Compound concentration 3.0 uM
T1 sequence (whole entry): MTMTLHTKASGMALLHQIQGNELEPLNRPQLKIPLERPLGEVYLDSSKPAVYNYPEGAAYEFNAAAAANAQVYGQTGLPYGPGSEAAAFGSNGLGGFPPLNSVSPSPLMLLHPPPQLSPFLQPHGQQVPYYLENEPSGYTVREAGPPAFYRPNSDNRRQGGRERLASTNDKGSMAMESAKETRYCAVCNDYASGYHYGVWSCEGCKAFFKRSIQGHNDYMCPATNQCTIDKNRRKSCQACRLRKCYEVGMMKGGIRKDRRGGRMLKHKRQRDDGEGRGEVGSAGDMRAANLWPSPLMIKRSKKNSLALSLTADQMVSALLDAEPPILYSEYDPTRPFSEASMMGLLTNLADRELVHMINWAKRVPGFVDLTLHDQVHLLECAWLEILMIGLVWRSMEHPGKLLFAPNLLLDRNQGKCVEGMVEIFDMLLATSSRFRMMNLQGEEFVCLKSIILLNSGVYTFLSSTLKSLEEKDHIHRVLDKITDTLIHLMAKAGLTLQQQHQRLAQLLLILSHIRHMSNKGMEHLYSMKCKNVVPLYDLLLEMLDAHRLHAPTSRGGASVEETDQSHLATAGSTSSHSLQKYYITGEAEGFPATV

[12] = molecular target: Alpha-1D adrenergic receptor (Homo sapiens) (UniProt P25100); conditions: Compound concentration 10.0 uM
Chain of Alpha-1D adrenergic receptor (Homo sapiens) (P25100 whole entry): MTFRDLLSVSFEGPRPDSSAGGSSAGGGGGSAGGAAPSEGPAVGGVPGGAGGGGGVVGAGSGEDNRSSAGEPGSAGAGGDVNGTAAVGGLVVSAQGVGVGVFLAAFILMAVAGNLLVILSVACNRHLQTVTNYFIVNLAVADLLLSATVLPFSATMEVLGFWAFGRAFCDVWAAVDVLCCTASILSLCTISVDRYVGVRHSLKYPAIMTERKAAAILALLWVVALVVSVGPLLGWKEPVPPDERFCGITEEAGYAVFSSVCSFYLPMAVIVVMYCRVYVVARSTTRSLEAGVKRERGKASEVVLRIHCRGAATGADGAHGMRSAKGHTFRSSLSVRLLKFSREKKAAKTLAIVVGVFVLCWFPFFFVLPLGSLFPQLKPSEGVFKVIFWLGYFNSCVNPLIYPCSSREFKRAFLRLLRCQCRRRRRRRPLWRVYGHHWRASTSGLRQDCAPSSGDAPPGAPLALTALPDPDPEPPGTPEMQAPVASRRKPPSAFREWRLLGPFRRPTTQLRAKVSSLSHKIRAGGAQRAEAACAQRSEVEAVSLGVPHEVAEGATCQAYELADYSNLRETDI

Bile acid receptor = Bile acid receptor (Homo sapiens, UniProt Q96RI1); assay: (§1) FXR In-house nuclear receptor screen
[13] = molecular target: T2, Bile acid receptor (Homo sapiens) (UniProt Q96RI1); assay: as §1; conditions: Compound concentration 3.0 uM
T2 sequence (whole entry): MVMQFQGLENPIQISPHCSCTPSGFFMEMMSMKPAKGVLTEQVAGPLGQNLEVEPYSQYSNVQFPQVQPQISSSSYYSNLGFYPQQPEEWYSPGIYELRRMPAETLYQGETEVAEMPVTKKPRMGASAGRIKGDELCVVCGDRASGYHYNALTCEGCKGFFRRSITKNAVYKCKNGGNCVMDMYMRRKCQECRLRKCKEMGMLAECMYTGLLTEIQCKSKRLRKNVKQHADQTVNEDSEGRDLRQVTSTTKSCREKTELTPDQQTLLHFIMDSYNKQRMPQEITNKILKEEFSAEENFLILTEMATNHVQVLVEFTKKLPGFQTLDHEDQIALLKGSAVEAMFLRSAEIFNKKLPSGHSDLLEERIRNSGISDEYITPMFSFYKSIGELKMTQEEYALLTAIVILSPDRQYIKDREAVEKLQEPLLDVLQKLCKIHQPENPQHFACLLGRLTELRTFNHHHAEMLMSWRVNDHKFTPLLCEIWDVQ

[14] = molecular target: Mitogen-activated protein kinase 3 (Homo sapiens) (UniProt P27361); assay: ERK1 Invitrogen kinase panel; conditions: Compound concentration 10.0 uM
[15] = molecular target: Muscarinic acetylcholine receptor M3 (Homo sapiens) (UniProt P20309); assay: M3 (h) CEREP screen
Chain of Muscarinic acetylcholine receptor M3 (Homo sapiens) (P20309 whole entry, looked up): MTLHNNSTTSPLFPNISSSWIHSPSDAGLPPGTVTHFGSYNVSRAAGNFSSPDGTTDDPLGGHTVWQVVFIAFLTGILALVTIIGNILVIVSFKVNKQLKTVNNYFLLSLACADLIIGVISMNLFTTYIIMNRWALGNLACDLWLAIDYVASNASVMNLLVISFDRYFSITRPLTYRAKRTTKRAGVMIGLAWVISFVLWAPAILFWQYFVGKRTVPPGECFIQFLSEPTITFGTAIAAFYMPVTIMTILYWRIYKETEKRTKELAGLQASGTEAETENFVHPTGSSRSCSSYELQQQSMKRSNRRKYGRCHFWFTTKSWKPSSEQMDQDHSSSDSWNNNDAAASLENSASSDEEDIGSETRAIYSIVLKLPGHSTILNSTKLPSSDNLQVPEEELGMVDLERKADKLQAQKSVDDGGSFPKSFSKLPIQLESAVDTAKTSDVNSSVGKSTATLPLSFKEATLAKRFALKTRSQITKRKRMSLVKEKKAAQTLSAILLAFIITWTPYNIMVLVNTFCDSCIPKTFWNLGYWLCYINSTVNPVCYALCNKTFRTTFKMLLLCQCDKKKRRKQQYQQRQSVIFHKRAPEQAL

[16] = molecular target: Histamine H2 receptor (Homo sapiens) (UniProt P25021); conditions: Compound concentration 10.0 uM
Chain of Histamine H2 receptor (Homo sapiens) (P25021 whole entry): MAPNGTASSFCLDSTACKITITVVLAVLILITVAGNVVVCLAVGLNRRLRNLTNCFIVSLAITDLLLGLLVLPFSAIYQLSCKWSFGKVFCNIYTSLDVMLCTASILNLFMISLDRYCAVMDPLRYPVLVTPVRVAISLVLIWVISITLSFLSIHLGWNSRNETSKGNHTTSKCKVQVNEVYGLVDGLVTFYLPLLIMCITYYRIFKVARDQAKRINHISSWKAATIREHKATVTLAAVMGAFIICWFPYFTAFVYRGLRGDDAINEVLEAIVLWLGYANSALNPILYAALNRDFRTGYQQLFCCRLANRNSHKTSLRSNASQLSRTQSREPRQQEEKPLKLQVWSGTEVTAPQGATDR

[17] = molecular target: Sodium-dependent noradrenaline transporter (Homo sapiens) (UniProt P23975); conditions: Compound concentration 10.0 uM
[18] = molecular target: 5-hydroxytryptamine receptor 1A (Homo sapiens) (UniProt P08908); conditions: Compound concentration 10.0 uM
Chain of 5-hydroxytryptamine receptor 1A (Homo sapiens) (P08908 whole entry): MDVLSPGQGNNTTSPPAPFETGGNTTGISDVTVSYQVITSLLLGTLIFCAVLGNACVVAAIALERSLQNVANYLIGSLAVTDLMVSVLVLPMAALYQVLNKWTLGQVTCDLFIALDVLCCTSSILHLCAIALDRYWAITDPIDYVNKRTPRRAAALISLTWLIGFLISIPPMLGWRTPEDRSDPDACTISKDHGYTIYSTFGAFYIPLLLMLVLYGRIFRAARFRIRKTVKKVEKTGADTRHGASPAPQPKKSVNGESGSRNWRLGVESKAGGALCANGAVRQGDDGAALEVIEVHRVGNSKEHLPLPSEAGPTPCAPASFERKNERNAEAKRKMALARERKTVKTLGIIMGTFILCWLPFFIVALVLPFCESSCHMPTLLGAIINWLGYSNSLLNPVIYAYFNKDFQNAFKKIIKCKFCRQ

[19] = molecular target: voltage-dependent K+ channel (Homo sapiens, UniProt O43525+O43526+O95259+P16389+P17658+P22001+P22459+P22460+P48547+P51787+P56696+Q03721+Q09470+Q12809+Q14003+Q14721+Q16322+Q6PIU1+Q8NCM2+Q8TAE7+Q8TDN1+Q8TDN2+Q92953+Q96KK3+Q96L42+Q96PR1+Q96RP8+Q9BQ31+Q9H252+Q9H3M0+Q9NR82+Q9NS40+Q9NSA2+Q9NZV8+Q9UIX4+Q9UJ96+Q9UK17+Q9ULD8+Q9ULS6+Q9UQ05); assay: K+ channel (Volt-dependent) CEREP screen; assay type: protein assay; conditions: compound concentration 10 uM
[20] = molecular target: Tyrosine-protein kinase Blk (Homo sapiens) (UniProt P51451); assay: Blk Invitrogen kinase panel; conditions: Compound concentration 10.0 uM
[21] = molecular target: T3, CAR (nuclear receptor subfamily 1 group I member 3) (Homo sapiens, UniProt Q14994); assay: CAR Indigo Bioscience nuclear receptor screen
T3 sequence (Q14994 whole entry): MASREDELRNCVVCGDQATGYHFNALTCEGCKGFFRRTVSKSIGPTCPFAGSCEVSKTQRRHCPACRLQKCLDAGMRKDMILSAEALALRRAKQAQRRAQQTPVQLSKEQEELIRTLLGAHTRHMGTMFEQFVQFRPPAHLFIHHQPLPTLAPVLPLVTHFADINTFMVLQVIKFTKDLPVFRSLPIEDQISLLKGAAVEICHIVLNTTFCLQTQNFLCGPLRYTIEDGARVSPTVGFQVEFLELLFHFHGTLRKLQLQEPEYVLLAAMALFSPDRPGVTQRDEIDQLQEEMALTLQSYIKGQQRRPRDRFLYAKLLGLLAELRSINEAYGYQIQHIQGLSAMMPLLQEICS

[22] = molecular target: Nuclear receptor ROR-alpha (Homo sapiens) (UniProt P35398); assay: ThermoFluor Binding Assay (RORA)
Chain of Nuclear receptor ROR-alpha (Homo sapiens) (P35398 whole entry): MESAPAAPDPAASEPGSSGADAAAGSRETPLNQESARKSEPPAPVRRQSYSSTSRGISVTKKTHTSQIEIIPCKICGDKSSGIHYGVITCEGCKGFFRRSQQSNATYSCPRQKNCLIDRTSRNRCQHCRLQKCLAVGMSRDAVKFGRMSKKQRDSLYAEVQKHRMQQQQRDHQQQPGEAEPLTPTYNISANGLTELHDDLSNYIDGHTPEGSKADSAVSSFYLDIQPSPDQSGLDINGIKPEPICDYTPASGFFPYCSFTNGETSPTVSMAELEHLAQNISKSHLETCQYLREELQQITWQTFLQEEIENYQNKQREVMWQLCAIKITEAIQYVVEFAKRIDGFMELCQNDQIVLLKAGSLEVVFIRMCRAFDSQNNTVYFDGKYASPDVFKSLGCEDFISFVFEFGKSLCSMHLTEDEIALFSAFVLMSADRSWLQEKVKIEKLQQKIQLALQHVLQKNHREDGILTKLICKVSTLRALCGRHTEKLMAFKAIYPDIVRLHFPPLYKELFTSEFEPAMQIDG

[23] = molecular target: Ephrin type-A receptor 2 (Homo sapiens) (UniProt P29317); assay: EphA2 Invitrogen kinase panel; conditions: Compound concentration 10.0 uM
Chain of Ephrin type-A receptor 2 (Homo sapiens) (P29317 whole entry): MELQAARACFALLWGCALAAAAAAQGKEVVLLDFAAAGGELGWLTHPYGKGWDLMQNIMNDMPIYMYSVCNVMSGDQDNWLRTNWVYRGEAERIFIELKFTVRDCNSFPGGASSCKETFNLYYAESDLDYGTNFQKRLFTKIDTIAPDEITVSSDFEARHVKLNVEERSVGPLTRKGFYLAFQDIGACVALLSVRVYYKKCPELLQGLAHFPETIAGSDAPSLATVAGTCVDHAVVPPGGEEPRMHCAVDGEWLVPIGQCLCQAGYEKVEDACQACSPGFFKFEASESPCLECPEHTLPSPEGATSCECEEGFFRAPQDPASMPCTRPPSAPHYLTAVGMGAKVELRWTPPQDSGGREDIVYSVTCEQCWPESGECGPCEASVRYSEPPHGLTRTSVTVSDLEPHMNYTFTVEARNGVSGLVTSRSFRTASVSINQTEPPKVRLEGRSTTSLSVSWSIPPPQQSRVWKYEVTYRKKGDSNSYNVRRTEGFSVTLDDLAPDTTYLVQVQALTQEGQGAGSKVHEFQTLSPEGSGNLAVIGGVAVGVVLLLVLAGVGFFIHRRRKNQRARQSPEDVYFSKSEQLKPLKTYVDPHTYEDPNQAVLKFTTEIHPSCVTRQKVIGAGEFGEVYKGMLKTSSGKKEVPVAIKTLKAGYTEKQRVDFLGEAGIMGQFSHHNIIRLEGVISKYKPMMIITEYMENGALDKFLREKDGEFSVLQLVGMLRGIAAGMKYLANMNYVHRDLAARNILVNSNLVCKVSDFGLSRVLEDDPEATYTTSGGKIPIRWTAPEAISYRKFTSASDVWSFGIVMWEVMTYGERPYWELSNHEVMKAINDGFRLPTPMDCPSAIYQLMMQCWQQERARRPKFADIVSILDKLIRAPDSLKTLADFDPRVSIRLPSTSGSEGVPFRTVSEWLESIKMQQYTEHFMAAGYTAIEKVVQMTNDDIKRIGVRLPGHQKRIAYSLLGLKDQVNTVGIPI

COc1nc2ccc([C@@](O)(c3ccccc3)C3CCN(C(C)=O)CC3)cc2c(Cl)c1Cc1ccc(-n2cccn2)cc1 [JNJ-54119936]
inhibition [1]: 5.9% | inhibition [2]: 8.86% | inhibition [3]: 14% | inhibition [4]: 25.6% | inhibition [5]: 38% | inhibition [6]: 3% | inhibition ([7]; Compound concentration 1.0 uM): 20% | inhibition ([7]; Compound concentration 10.0 uM): 22% | inhibition [8]: 4% | inhibition [9]: 5.62% | inhibition [10]: 16% | inhibition [11]: 16.8% | inhibition [12]: 6.64% | IC50 (Bile acid receptor): 5.8 µM | inhibition [13]: 33% | inhibition [14]: 10% | inhibition ([15]; Compound concentration 1.0 uM): 21% | inhibition ([15]; Compound concentration 10.0 uM): 19% | inhibition [16]: -0.99% | inhibition [17]: 21.7% | inhibition [18]: 16.6% | inhibition at 10 µM [19]: 15% (not active) | inhibition [20]: 0% | inhibition at 0.3 µM ([21]; compound concentration 0.3 uM): -0.121% (not active) | inhibition at 1 µM ([21]; compound concentration 1 uM): -0.752% (not active) | inhibition at 3 µM ([21]; compound concentration 3 uM): 2.37% (not active) | qKD [22]: > 75 µM | inhibition [23]: 6%
